Reference: PubChem BioAssay (NCI)
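All cell lines were grown in 96-well plates and treated with compound for 48 hours. TGI is the concentration that stops growth completely.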

Tests used:
Test in all cases: inhibition of tumour cell growth, NCI panel, 48 h
[1] = system: 786-0 renal
[2] = system: A549 NSCLC
[3] = system: ACHN renal
[4] = system: CAKI-1 renal
[5] = system: CCRF-CEM leukemia
[6] = system: COLO 205 colon
[7] = system: DLD-1 colon
[8] = system: DMS 114 small cell lung
[9] = system: DMS 273 small cell lung
[10] = system: EKVX NSCLC
[11] = system: HCC-2998 colon
[12] = system: HCT-116 colon
[13] = system: HCT-15 colon
[14] = system: HL-60(TB) leukemia
[15] = system: HOP-18 NSCLC
[16] = system: HOP-62 NSCLC
[17] = system: HOP-92 NSCLC
[18] = system: HT29 colon
[19] = system: IGROV1 ovarian
[20] = system: K-562 leukemia
[21] = system: KM12 colon
[22] = system: LOX IMVI melanoma
[23] = system: LXFL 529 NSCLC
[24] = system: M14 melanoma
[25] = system: M19-MEL melanoma
[26] = system: MALME-3M melanoma
[27] = system: MOLT-4 leukemia
[28] = system: NCI-H226 lung
[29] = system: NCI-H23 lung
[30] = system: NCI-H522 lung
[31] = system: OVCAR-3 ovarian
[32] = system: OVCAR-5 ovarian
[33] = system: OVCAR-8 ovarian
[34] = system: RPMI-8226 leukemia
[35] = system: RXF-631 renal
[36] = system: SF-268 CNS
[37] = system: SF-295 CNS
[38] = system: SF-539 CNS
[39] = system: SK-MEL-2 melanoma
[40] = system: SK-MEL-28 melanoma
[41] = system: SK-MEL-5 melanoma
[42] = system: SK-OV-3 ovarian
[43] = system: SN12C renal
[44] = system: SNB-75 CNS
[45] = system: SNB-78 CNS
[46] = system: SR leukemia
[47] = system: SW-620 colon
[48] = system: TK-10 renal
[49] = system: U251 CNS
[50] = system: UACC-257 melanoma
[51] = system: UACC-62 melanoma
[52] = system: UO-31 renal
[53] = system: XF 498 CNS
[54] = system: A498 renal
[55] = system: KM20L2 colon
[56] = system: NCI-H460 lung
[57] = system: OVCAR-4 ovarian
[58] = system: RXF 393 renal
[59] = system: SNB-19 CNS

CCOC(=O)/C(Br)=C1\OC(=O)c2ccccc2-c2ccccc21
TGI [1]: > 100 µM
TGI [2]: > 100 µM
TGI [3]: > 100 µM
TGI [4]: > 100 µM
TGI [5]: 67.7 µM
TGI [6]: 49.9 µM
TGI [7]: > 100 µM
TGI [8]: 61.7 µM
TGI [9]: > 100 µM
TGI [10]: > 100 µM
TGI [11]: > 100 µM
TGI [12]: > 100 µM
TGI [13]: > 100 µM
TGI [14]: 40.1 µM
TGI [15]: > 100 µM
TGI [16]: 54.7 µM
TGI [17]: 79.9 µM
TGI [18]: > 100 µM
TGI [19]: > 100 µM
TGI [20]: > 100 µM
TGI [21]: > 100 µM
TGI [22]: > 100 µM
TGI [23]: 99 µM
TGI [24]: > 100 µM
TGI [25]: > 100 µM
TGI [26]: > 100 µM
TGI [27]: 65.5 µM
TGI [28]: 86.1 µM
TGI [29]: > 100 µM
TGI [30]: 61.1 µM
TGI [31]: > 100 µM
TGI [32]: > 100 µM
TGI [33]: > 100 µM
TGI [34]: > 100 µM
TGI [35]: > 100 µM
TGI [36]: > 100 µM
TGI [37]: > 100 µM
TGI [38]: 73.1 µM
TGI [39]: > 100 µM
TGI [40]: > 100 µM
TGI [41]: > 100 µM
TGI [42]: > 100 µM
TGI [43]: > 100 µM
TGI [44]: > 100 µM
TGI [45]: > 100 µM
TGI [46]: 56.7 µM
TGI [47]: > 100 µM
TGI [48]: > 100 µM
TGI [49]: > 100 µM
TGI [50]: > 100 µM
TGI [51]: > 100 µM
TGI [52]: > 100 µM
TGI [53]: > 100 µM

Cc1ccccc1/C=C/c1csnn1
TGI [1]: > 100 µM
TGI [54]: > 100 µM
TGI [2]: > 100 µM
TGI [3]: > 100 µM
TGI [4]: > 100 µM
TGI [5]: > 100 µM
TGI [6]: > 100 µM
TGI [7]: > 74.3 µM
TGI [8]: > 56 µM
TGI [9]: > 100 µM
TGI [10]: > 100 µM
TGI [11]: > 100 µM
TGI [12]: > 59.3 µM
TGI [13]: > 57.5 µM
TGI [14]: 39 µM
TGI [15]: > 100 µM
TGI [16]: > 100 µM
TGI [17]: > 100 µM
TGI [18]: > 100 µM
TGI [19]: > 100 µM
TGI [20]: > 100 µM
TGI [21]: > 100 µM
TGI [55]: > 100 µM
TGI [22]: > 100 µM
TGI [23]: > 100 µM
TGI [24]: > 100 µM
TGI [25]: > 100 µM
TGI [26]: > 100 µM
TGI [27]: > 100 µM
TGI [28]: > 100 µM
TGI [29]: > 100 µM
TGI [56]: > 75.6 µM
TGI [30]: > 100 µM
TGI [31]: > 100 µM
TGI [57]: > 100 µM
TGI [32]: > 100 µM
TGI [33]: > 100 µM
TGI [34]: 79.7 µM
TGI [58]: > 100 µM
TGI [35]: > 100 µM
TGI [36]: > 71.4 µM
TGI [37]: > 100 µM
TGI [38]: > 100 µM
TGI [39]: > 100 µM
TGI [40]: > 100 µM
TGI [41]: > 100 µM
TGI [42]: > 100 µM
TGI [43]: > 100 µM
TGI [59]: > 100 µM
TGI [44]: > 100 µM
TGI [45]: > 100 µM
TGI [46]: > 100 µM
TGI [47]: > 79.9 µM
TGI [48]: > 100 µM
TGI [49]: > 100 µM
TGI [50]: > 100 µM
TGI [51]: > 100 µM
TGI [52]: > 100 µM
TGI [53]: > 100 µM
